Reference: patent US9206184B2, “Disubstituted benzothienyl-pyrrolotriazines and uses thereof” (BAYER INTELLECTUAL PROPERTY GmbH, priority 2011, dated 2015)
Structures can show the parent of a compound that is named as a salt.

What was measured:
Type in all cases: biochemical
[1] = target: human mTOR (Homo sapiens (Human), UniProt P42345); experiment: mTOR kinase assay (TR-FRET, for comparative purposes); conditions: mean inhibition at 1 μM test compound; 40 μM ATP
[2] = target: human FGFR-1 (Homo sapiens, UniProt P11362); experiment: FGFR-1 high ATP kinase assay (TR-FRET); conditions: 2 mM ATP; 15 min pre-incubation with enzyme; compounds of the invention
[3] = target: human FGFR-3 (Homo sapiens (Human), UniProt P22607); experiment: FGFR-3 kinase assay (TR-FRET); conditions: 10 μM ATP; 15 min pre-incubation with enzyme; compounds of the invention
human FGFR-3, sequence (P22607 397-806): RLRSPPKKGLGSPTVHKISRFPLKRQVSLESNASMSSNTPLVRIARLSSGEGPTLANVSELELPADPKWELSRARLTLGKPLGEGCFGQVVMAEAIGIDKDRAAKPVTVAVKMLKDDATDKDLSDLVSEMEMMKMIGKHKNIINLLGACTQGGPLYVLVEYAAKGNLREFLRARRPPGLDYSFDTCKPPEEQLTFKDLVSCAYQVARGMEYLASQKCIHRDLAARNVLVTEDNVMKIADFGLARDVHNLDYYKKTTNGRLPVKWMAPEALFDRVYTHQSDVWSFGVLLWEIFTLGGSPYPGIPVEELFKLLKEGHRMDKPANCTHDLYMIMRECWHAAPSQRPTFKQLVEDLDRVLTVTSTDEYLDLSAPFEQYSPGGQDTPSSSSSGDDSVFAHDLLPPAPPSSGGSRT

human FGFR-1, sequence (P11362 22-822 limits assumed): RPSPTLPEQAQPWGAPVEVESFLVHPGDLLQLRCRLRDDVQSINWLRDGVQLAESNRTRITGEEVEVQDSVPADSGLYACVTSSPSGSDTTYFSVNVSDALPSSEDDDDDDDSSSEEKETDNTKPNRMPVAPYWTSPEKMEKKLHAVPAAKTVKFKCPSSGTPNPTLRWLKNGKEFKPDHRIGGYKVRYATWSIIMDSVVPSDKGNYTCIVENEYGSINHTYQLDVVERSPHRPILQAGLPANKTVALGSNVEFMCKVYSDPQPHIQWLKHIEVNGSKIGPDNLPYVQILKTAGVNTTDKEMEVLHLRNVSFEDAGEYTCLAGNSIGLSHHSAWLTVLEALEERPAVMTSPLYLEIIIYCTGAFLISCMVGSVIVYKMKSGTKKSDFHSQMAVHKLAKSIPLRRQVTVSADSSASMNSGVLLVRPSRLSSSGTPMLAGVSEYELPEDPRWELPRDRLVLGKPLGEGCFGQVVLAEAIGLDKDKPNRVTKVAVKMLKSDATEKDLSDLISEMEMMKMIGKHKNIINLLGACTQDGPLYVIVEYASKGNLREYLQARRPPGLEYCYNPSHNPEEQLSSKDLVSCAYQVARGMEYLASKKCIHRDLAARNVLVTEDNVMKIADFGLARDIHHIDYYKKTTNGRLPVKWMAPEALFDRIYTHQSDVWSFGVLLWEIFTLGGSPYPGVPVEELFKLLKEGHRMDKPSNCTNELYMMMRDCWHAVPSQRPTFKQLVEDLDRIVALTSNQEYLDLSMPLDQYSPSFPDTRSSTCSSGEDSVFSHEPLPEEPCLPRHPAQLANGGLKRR
human mTOR, sequence (P42345 1360-2549): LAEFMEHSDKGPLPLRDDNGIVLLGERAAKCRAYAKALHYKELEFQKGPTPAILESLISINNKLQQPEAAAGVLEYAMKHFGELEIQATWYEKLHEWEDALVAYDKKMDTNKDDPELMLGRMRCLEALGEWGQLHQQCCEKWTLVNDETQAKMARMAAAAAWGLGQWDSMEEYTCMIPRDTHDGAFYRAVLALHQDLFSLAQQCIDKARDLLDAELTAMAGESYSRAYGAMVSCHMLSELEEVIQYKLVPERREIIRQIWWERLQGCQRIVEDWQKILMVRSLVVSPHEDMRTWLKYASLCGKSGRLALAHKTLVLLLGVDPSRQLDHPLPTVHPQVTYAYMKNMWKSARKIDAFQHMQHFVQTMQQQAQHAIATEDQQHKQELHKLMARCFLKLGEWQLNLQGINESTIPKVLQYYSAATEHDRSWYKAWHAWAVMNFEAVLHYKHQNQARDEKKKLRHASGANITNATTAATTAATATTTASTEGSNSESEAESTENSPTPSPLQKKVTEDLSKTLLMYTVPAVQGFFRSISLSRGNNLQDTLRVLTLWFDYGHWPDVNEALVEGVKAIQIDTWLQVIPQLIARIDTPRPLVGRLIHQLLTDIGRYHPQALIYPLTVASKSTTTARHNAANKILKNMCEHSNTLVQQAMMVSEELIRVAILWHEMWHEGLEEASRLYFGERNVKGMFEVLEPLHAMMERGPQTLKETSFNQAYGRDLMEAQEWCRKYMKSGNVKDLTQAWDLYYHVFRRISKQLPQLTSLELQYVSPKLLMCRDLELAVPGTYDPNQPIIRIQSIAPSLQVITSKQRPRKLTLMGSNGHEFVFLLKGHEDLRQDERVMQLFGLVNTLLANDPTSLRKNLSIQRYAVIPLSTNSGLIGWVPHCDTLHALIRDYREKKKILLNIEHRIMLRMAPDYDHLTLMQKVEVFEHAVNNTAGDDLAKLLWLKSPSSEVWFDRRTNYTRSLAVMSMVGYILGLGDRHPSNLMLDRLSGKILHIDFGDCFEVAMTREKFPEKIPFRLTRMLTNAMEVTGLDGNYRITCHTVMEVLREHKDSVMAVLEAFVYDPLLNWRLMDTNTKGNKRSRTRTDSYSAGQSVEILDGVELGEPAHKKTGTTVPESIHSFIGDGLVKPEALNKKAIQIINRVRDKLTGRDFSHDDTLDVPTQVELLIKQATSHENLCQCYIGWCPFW

Row | IC50 [2] | IC50 [3] | Compound | mTOR inhibition @ 1 μM [1]
1 | 9.9 nM | 11 nM | CCOCc1c(-c2cc3cc(C)cc(OC)c3s2)c2c(N)ncnn2c1C(C)O (stereo not shown) [Example 90, 1-[4-Amino-6-(ethoxymethyl)-5-(7-methoxy-5-methyl-1-benzothiophen-2-yl)pyrrolo[2,1-f][1,2,4]-triazin-7-yl]ethanol] | –
2 | 52.9 nM | 31.1 nM | CCOCc1c(-c2cc3cc(C)cc(OC)c3s2)c2c(N)ncnn2c1C(O)C1CC1 (stereo not shown) [Example 91, [4-Amino-6-(ethoxymethyl)-5-(7-methoxy-5-methyl-1-benzothiophen-2-yl)pyrrolo[2,1-f][1,2,4]-triazin-7-yl](cyclopropyl)methanol] | –
3 | 17 nM | 28.7 nM | CCOCc1c(-c2cc3cc(C)cc(OC)c3s2)c2c(N)ncnn2c1CN1CCNC(=O)C1(C)C [Example 95] | –
4 | 24.8 nM | 36.9 nM | CCOCc1c(-c2cc3cc(C)cc(OC)c3s2)c2c(N)ncnn2c1CN1CCS(=O)(=O)CC1 [Example 99] | –
5 | 39.2 nM | 39.8 nM | CCOCc1c(-c2cc3cc(C)cc(OC)c3s2)c2c(N)ncnn2c1CN1CC(F)(F)C1 [Example 102] | –
6 | 6.4 nM | 7.1 nM | CCOCc1c(-c2cc3cc(C)cc(OC)c3s2)c2c(N)ncnn2c1C(=O)N[C@@H]1CCNC1=O [Example 106, 4-Amino-6-(ethoxymethyl)-5-(7-methoxy-5-methyl-1-benzothiophen-2-yl)-N-[(3R)-2-oxopyrrolidin-3-yl]pyrrolo[2,1-f][1,2,4]triazine-7-carboxamide] | –
7 | 11.2 nM | 9.6 nM | CCOCc1c(-c2cc3cc(C)cc(OC)c3s2)c2c(N)ncnn2c1C(=O)N(C)C [Example 114] | –
8 | 8.8 nM | 5.3 nM | CCOCc1c(-c2cc3cc(C)cc(OC)c3s2)c2c(N)ncnn2c1C(=O)N1CNC(=O)C1 [Example 117] | –

The next lines start with the compound.

Row | Compound | IC50 [2] | IC50 [3] | mTOR inhibition @ 1 μM [1]
9 | CCOCc1c(-c2cc3cc(C)cc(OC)c3s2)c2c(N)ncnn2c1CNCC(N)=O [Example 9, N^2-{[4-Amino-6-(ethoxymethyl)-5-(7-methoxy-5-methyl-1-benzothiophen-2-yl)pyrrolo[2,1-f]-[1,2,4]triazin-7-yl]methyl}glycinamide dihydrochloride] | – | – | no inhib. effect detect.
10 | CCOCc1c(-c2cc3cc(C)cc(OC)c3s2)c2c(N)ncnn2c1CN1CCNCC1 [Example 18, 6-(Ethoxymethyl)-5-(7-methoxy-5-methyl-1-benzothiophen-2-yl)-7-(piperazin-1-ylmethyl)pyrrolo-[2,1-f][1,2,4]triazin-4-amine] | – | – | no inhib. effect detect.
11 | COc1cc(C)cc2cc(-c3c(CNC(C)=O)c(CN4CCN(C=O)CC4)n4ncnc(N)c34)sc12 [Example 65, N-({4-Amino-7-[(4-formylpiperazin-1-yl)methyl]-5-(7-methoxy-5-methyl-1-benzothiophen-2-yl)pyrrolo[2,1-f][1,2,4]triazin-6-yl}methyl)acetamide formiate] | 5.6 nM | 3.1 nM | –
12 | COc1cc(C)cc2cc(-c3c(CNC(C)=O)c(CN4CCN(C(C)=O)CC4)n4ncnc(N)c34)sc12 [Example 66, N-({7-[(4-Acetylpiperazin-1-yl)methyl]-4-amino-5-(7-methoxy-5-methyl-1-benzothiophen-2-yl)pyrrolo[2,1-f][1,2,4]triazin-6-yl}methyl)acetamide] | 1.6 nM | 3.7 nM | –
13 | COc1cc(C)cc2cc(-c3c(CNC(C)=O)c(CN4CCNC(=O)C4)n4ncnc(N)c34)sc12 [Example 67, N-({4-Amino-5-(7-methoxy-5-methyl-1-benzothiophen-2-yl)-7-[(3-oxopiperazin-1-yl)methyl]-pyrrolo[2,1-f][1,2,4]triazin-6-yl}methyl)acetamide] | 5 nM | 9.4 nM | –
14 | COc1cc(C)cc2cc(-c3c(CO)c(C#N)n4ncnc(N)c34)sc12 [Example 68, 4-Amino-6-(hydroxymethyl)-5-(7-methoxy-5-methyl-1-benzothiophen-2-yl)pyrrolo[2,1-f][1,2,4]-triazine-7-carbonitrile] | 27 nM | 42.7 nM | –
15 | COc1cc(C)cc2cc(-c3c(CO)c(C(C)(C)O)n4ncnc(N)c34)sc12 [Example 73, 2-[4-Amino-6-(hydroxymethyl)-5-(7-methoxy-5-methyl-1-benzothiophen-2-yl)pyrrolo[2,1-f]-[1,2,4]triazin-7-yl]propan-2-ol] | 4.4 nM | 12.2 nM | –
16 | COc1cc(C)cc2cc(-c3c(CN4CCNC(=O)C4)c(C(C)(C)O)n4ncnc(N)c34)sc12 [Example 74, 4-{[4-Amino-7-(2-hydroxypropan-2-yl)-5-(7-methoxy-5-methyl-1-benzothiophen-2-yl)pyrrolo-[2,1-f][1,2,4]triazin-6-yl]methyl}piperazin-2-one] | 4 nM | 1.4 nM | –
17 | COc1cc(C)cc2cc(-c3c(CO)c(C)n4ncnc(N)c34)sc12 [Example 75, [4-Amino-5-(7-methoxy-5-methyl-1-benzothiophen-2-yl)-7-methylpyrrolo[2,1-f][1,2,4]triazin-6-yl]methanol] | 4.1 nM | 19.8 nM | –
18 | COc1cc(C)cc2cc(-c3c(CN4CCNC(=O)C4)c(C)n4ncnc(N)c34)sc12 [Example 76, 4-{[4-Amino-5-(7-methoxy-5-methyl-1-benzothiophen-2-yl)-7-methylpyrrolo[2,1-f][1,2,4]triazin-6-yl]methyl}piperazin-2-one] | 2.8 nM | 1.4 nM | –
19 | COc1cc(C)cc2cc(-c3c(CNCC(C)(C)O)c(C)n4ncnc(N)c34)sc12 [Example 77, 1-({[4-Amino-5-(7-methoxy-5-methyl-1-benzothiophen-2-yl)-7-methylpyrrolo[2,1-f][1,2,4]triazin-6-yl]methyl}amino)-2-methylpropan-2-ol formiate] | 1.4 nM | 3.8 nM | –
20 | COc1cc(C)cc2cc(-c3c(CNCC(C)(C)O)c(C)n4ncnc(N)c34)sc12 [Example 78, 1-({[4-Amino-5-(7-methoxy-5-methyl-1-benzothiophen-2-yl)-7-methylpyrrolo[2,1-f][1,2,4]triazin-6-yl]methyl}amino)-2-methylpropan-2-ol] | 1.7 nM | 2 nM | –
21 | COc1cc(C)cc2cc(-c3c(CO)c(Cl)n4ncnc(N)c34)sc12 [Example 79, [4-Amino-7-chloro-5-(7-methoxy-5-methyl-1-benzothiophen-2-yl)pyrrolo[2,1-f][1,2,4]triazin-6-yl]methanol] | 12.6 nM | 17.9 nM | –
22 | COc1cc(C)cc2cc(-c3c(CNCC(C)(C)O)c(Cl)n4ncnc(N)c34)sc12 [Example 81, 1-({[4-Amino-7-chloro-5-(7-methoxy-5-methyl-1-benzothiophen-2-yl)pyrrolo[2,1-f][1,2,4]triazin-6-yl]methyl}amino)-2-methylpropan-2-ol formiate] | 1.9 nM | 0.5 nM | –
23 | COc1cc(C)cc2cc(-c3c(CNCC(C)(C)O)c(Cl)n4ncnc(N)c34)sc12 [Example 82, 1-({[4-Amino-7-chloro-5-(7-methoxy-5-methyl-1-benzothiophen-2-yl)pyrrolo[2,1-f][1,2,4]triazin-6-yl]methyl}amino)-2-methylpropan-2-ol] | 3.4 nM | 16 nM | –
24 | COc1cc(C)cc2cc(-c3c(C)c(CN4CCNCC4)n4ncnc(N)c34)sc12 [Example 84, 5-(7-Methoxy-5-methyl-1-benzothiophen-2-yl)-6-methyl-7-(piperazin-1-ylmethyl)pyrrolo[2,1-f]-[1,2,4]triazin-4-amine formiate] | 3.7 nM | 16.5 nM | –
